Experimental data taken from patent US10005774B2, “Syk inhibitors” (Gilead Sciences, Inc., priority 2013, dated 2018).
Like-named read-outs stand apart in the source and are kept apart here.

Biological target: Syk (Homo sapiens, UniProt P43405)
Test: High Throughput Syk Biochemical Assay (KinEASE TR-FRET)
Details: 20 μM ATP, 1 μM biotinylated peptide, 0.015 nM Syk, 30 min at room temperature
Method in brief: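 Two-step endpoint TR-FRET (KinEASE) measured Syk phosphorylation of an XL665-labelled peptide, detected with europium anti-phosphotyrosine antibody. Compounds were serially diluted in DMSO.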

IC50 (TABLE D, read-out: IC50) [nM]	IC50 (table 'ALL NEW COMPOUNDS IN 2014', read-out: Syk IC50) [nM]	SMILES
45.7		COc1cccc(-c2cc(O[C@H](C)[C@H]3CNC(=O)C3)c3c(c2)ncn3C)n1 [(R)-4-((R)-1-((5-(6-methoxypyridin-2-yl)-1-methyl-1H-benzo[d]imidazol-7-yl)oxy)ethyl)pyrrolidin-2-one]
97.5		C[C@@H](Oc1nc(-c2cc[nH]c(=O)c2)cc2ncn(C)c12)[C@H]1CNC(=O)C1 [4-(3-methyl-4-((R)-1-((R)-5-oxopyrrolidin-3-yl)ethoxy)-3H-imidazo[4,5-c]pyridin-6-yl)pyridin-2(1H)-one]
5.19		COc1ccc(-c2cc3ncn(C)c3c(O[C@H](C)[C@H]3CNC(=O)C3)n2)cc1OC [(R)-4-((R)-1-(6-(3,4-dimethoxyphenyl)-3-methyl-3H-imidazo[4,5-c]pyridin-4-yloxy)ethyl)pyrrolidin-2-one]
16.8		C[C@@H](Oc1nc(-c2ccc3cnn(C)c3c2)cc2ncn(C)c12)[C@H]1CNC(=O)C1 [(R)-4-((R)-1-((3-methyl-6-(1-methyl-1H-indazol-6-yl)-3H-imidazo[4,5-c]pyridin-4-yl)oxy)ethyl)pyrrolidin-2-one]
171		COCC[C@@H](Oc1nc(-c2cnn(C(C)(C)C)c2)cc2ncn(C)c12)[C@H]1CNC(=O)C1 [(R)-4-((R)-1-(6-(1-tert-butyl-1H-pyrazol-4-yl)-3-methyl-3H-imidazo[4,5-c]pyridin-4-yloxy)-3-methoxypropyl)pyrrolidin-2-one]
	2.78	COc1cc(-c2cc3ncn(C4CC4)c3c(O[C@H](C)[C@H]3CNC(=O)C3)n2)ccc1OCC(F)F [(R)-4-((R)-1-((3-cyclopropyl-6-(4-(2,2-difluoroethoxy)-3-methoxyphenyl)-3H-imidazo[4,5-c]pyridin-4-yl)oxy)ethyl)pyrrolidin-2-one]
51.3		COc1ccc(-c2cc3ncn(CC(F)(F)F)c3c(O[C@H](C)[C@H]3CNC(=O)C3)n2)cc1OC [(R)-4-((R)-1-(6-(3,4-dimethoxyphenyl)-3-(2,2,2-trifluoroethyl)-3H-imidazo[4,5-c]pyridin-4-yloxy)ethyl)pyrrolidin-2-one]
